Experimental findings from paper PMC10507085, “Pharmacological inhibition of TBK1/IKKε blunts immunopathology in a murine model of SARS-CoV-2 infection” (Nature Communications, 2023) are described below.

Among the targets are STK17B (Homo sapiens, UniProt O94768); HIPK1 (Homo sapiens, UniProt Q86Z02); CAMK2G (Homo sapiens, UniProt Q13555); EIF2AK1 (Homo sapiens, UniProt Q9BQI3); CAMK1G (Homo sapiens, UniProt Q96NX5); CDK9 (Homo sapiens, UniProt P50750); PTK6 (Homo sapiens, UniProt Q13882); SBK1 (Homo sapiens, UniProt Q52WX2); MAPK6 (Homo sapiens, UniProt Q16659); STK10 (Homo sapiens, UniProt O94804); MST1R (Homo sapiens, UniProt Q04912); CSF1R (Homo sapiens, UniProt P07333); FGFR2 (Homo sapiens, UniProt P21802); CLK1 (Homo sapiens, UniProt P49759); ULK2 (Homo sapiens, UniProt Q8IYT8); SRPK3 (Homo sapiens, UniProt Q9UPE1); CAMK2A (Homo sapiens, UniProt Q9UQM7); CDK16 (Homo sapiens, UniProt Q00536); MAPKAPK5 (Homo sapiens, UniProt Q8IW41); PNCK (Homo sapiens, UniProt Q6P2M8).

Assay in all cases: biochemical
Common to all, as to parameters: KINOMEscan competition binding, DNA-tagged kinase against immobilised ligand, qPCR read-out
Holding throughout (settings): read-out: Percent Control

Sequence of MST1R (Q04912 whole entry): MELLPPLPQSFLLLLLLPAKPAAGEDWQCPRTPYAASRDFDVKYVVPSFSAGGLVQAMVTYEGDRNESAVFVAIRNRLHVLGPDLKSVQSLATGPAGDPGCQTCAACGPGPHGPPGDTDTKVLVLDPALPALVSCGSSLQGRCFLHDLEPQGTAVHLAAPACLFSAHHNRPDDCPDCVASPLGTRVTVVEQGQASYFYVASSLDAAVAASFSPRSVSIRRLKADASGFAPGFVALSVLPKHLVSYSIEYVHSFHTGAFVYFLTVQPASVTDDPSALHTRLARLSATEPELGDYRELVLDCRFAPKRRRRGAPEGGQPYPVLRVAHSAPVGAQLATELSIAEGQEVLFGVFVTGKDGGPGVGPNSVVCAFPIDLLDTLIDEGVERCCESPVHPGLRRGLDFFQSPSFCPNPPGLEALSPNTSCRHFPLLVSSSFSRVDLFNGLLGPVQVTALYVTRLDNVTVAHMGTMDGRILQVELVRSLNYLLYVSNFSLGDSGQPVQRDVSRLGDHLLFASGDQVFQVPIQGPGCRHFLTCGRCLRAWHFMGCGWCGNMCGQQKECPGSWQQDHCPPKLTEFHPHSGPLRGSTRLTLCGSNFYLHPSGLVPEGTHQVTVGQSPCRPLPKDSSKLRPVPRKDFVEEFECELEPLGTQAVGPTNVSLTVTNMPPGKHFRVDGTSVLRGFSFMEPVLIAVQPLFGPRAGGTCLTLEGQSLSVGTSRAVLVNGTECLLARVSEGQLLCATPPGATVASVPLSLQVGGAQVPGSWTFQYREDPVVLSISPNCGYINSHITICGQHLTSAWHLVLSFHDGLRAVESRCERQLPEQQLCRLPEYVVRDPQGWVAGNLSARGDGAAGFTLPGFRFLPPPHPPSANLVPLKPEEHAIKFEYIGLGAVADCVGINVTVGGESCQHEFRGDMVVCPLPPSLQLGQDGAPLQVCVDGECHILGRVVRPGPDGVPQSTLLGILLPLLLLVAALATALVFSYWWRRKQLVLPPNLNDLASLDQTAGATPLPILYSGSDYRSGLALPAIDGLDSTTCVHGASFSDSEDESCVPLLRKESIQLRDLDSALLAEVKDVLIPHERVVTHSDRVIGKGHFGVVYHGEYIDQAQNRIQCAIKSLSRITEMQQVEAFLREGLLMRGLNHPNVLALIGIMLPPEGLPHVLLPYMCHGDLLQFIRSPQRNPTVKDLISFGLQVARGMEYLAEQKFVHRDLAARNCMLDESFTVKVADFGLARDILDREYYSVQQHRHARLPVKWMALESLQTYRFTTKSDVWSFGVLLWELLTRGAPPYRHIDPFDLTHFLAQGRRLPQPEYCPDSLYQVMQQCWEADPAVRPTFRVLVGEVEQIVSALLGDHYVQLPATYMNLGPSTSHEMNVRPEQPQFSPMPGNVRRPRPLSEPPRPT
Sequence of CDK9 (P50750 whole entry): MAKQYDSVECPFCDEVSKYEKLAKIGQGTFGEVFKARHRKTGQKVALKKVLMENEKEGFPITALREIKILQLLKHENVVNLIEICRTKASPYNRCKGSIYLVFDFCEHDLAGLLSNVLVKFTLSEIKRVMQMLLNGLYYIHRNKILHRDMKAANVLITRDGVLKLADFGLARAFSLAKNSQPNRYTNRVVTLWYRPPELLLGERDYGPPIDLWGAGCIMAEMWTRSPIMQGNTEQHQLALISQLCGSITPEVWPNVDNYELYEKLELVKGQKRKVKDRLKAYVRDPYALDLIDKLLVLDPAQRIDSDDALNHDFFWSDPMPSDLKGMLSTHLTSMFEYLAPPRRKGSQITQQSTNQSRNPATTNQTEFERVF
Sequence of CAMK1G (Q96NX5 whole entry): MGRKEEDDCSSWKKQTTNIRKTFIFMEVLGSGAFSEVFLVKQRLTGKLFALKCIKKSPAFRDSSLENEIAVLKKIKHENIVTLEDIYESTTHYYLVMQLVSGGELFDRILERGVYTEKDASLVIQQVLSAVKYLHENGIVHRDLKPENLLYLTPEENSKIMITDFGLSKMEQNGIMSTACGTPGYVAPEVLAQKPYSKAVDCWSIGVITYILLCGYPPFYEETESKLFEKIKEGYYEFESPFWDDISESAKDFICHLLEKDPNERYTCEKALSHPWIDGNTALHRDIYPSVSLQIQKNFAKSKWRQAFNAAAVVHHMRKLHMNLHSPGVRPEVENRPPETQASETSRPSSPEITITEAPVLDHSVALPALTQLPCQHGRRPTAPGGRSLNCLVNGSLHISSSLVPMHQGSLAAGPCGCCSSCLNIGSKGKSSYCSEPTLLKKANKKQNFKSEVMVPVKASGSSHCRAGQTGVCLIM
Sequence of MAPKAPK5 (Q8IW41 whole entry): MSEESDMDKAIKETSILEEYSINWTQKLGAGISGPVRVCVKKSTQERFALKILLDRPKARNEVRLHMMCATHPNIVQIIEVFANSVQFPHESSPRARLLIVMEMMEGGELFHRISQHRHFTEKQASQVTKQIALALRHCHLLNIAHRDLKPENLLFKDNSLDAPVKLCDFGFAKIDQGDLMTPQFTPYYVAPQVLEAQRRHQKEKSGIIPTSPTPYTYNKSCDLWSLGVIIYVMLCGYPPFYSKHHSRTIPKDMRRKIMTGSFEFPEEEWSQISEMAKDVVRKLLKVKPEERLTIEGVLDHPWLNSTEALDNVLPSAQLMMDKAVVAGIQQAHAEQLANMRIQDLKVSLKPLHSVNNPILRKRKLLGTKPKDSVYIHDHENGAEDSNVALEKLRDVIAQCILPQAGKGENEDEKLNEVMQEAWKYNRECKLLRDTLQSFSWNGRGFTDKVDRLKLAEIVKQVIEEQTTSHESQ
Sequence of EIF2AK1 (Q9BQI3 whole entry): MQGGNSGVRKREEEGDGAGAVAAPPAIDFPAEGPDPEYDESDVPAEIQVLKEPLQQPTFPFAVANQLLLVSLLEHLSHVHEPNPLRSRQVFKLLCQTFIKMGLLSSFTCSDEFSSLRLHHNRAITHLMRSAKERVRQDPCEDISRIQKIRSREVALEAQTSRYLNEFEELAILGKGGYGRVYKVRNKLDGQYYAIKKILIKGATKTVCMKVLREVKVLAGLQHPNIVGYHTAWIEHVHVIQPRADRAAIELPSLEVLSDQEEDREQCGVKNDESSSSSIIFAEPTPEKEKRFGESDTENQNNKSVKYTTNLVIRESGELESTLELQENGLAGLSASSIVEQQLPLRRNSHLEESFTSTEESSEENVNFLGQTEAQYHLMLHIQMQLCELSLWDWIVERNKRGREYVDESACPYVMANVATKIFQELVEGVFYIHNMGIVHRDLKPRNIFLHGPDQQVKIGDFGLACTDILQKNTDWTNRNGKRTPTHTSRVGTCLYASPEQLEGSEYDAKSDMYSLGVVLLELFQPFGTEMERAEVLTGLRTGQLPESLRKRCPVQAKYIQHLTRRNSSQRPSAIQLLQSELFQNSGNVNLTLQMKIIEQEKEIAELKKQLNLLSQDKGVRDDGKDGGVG
Sequence of CLK1 (P49759 whole entry): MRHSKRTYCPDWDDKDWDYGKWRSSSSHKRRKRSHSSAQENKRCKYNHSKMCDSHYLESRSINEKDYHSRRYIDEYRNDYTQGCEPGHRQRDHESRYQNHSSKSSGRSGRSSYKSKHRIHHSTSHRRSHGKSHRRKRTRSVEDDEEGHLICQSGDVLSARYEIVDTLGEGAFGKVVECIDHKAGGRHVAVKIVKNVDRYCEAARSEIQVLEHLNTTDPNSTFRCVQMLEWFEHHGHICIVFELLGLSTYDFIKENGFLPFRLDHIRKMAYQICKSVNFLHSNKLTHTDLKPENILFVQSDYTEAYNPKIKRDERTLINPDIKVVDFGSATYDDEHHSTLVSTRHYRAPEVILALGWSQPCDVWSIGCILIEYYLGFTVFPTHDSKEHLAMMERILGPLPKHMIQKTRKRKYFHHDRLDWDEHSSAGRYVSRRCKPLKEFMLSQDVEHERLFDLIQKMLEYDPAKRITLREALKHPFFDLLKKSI
Sequence of MAPK6 (Q16659 whole entry): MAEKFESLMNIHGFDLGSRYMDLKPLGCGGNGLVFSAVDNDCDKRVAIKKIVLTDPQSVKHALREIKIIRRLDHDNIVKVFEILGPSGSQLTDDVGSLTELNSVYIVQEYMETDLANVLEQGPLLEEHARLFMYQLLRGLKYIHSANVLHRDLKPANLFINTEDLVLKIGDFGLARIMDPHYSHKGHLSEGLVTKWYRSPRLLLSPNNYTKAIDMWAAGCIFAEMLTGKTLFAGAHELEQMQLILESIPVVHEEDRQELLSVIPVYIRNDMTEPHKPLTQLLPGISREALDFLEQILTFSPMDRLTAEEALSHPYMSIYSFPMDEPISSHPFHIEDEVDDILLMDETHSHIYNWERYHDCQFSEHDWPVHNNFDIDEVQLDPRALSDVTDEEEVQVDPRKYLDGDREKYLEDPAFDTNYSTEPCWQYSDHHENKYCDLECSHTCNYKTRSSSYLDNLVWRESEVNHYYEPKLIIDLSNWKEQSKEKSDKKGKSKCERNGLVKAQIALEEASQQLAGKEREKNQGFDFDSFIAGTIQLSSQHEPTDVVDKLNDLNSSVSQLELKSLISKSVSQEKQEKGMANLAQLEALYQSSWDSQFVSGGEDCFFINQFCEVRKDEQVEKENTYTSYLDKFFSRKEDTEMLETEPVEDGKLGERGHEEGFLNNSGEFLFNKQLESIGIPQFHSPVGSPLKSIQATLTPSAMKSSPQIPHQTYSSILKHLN
Sequence of CAMK2A (Q9UQM7 whole entry): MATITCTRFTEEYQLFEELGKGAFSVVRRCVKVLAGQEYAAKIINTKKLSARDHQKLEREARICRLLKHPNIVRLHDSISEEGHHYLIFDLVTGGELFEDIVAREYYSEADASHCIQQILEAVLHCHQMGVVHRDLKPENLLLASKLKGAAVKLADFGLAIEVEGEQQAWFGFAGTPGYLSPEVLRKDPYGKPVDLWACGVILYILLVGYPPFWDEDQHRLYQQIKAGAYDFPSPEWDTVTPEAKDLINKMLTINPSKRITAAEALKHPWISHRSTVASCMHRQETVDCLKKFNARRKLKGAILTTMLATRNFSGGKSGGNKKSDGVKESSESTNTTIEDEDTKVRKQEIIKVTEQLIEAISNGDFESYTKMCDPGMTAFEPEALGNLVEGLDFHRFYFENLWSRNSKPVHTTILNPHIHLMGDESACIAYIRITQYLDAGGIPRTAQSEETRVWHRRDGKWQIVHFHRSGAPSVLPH

Regarding `Oc1ccc(C2=Cc3ccc(O)cc3OC2)cc1` [compound 1, idronoxil], the remaining binding at 10 µM on STK17B was determined as 40%; at HIPK1, 65%; on CAMK2G, 85%; at EIF2AK1, 88%; at CAMK1G, 80%; on CDK9, 91%. Besides, the remaining binding at 10 µM at PTK6 was 100%; on SBK1 it was 91%; on MAPK6, 96%; on STK10, 100%; at MST1R it was 100%; at CSF1R it was 26%. The remaining binding at 10 µM amounted to 80% at FGFR2; 53% at CLK1; 100% at ULK2; 94% on SRPK3; 87% at CAMK2A; 93% at CDK16. Besides, the remaining binding at 10 µM at MAPKAPK5 worked out at 75%; on PNCK it was 74%.
